Read-outs that look alike come from different tables or passages of the source.
Target: T1, mouse TMEM16A mutant V511A (Mus musculus, UniProt Q8BHY3, V511A)
T1 construct: expressed in transfected cells; host or cells: HEK293T
T1 sequence (Q8BHY3 1-960 V511A): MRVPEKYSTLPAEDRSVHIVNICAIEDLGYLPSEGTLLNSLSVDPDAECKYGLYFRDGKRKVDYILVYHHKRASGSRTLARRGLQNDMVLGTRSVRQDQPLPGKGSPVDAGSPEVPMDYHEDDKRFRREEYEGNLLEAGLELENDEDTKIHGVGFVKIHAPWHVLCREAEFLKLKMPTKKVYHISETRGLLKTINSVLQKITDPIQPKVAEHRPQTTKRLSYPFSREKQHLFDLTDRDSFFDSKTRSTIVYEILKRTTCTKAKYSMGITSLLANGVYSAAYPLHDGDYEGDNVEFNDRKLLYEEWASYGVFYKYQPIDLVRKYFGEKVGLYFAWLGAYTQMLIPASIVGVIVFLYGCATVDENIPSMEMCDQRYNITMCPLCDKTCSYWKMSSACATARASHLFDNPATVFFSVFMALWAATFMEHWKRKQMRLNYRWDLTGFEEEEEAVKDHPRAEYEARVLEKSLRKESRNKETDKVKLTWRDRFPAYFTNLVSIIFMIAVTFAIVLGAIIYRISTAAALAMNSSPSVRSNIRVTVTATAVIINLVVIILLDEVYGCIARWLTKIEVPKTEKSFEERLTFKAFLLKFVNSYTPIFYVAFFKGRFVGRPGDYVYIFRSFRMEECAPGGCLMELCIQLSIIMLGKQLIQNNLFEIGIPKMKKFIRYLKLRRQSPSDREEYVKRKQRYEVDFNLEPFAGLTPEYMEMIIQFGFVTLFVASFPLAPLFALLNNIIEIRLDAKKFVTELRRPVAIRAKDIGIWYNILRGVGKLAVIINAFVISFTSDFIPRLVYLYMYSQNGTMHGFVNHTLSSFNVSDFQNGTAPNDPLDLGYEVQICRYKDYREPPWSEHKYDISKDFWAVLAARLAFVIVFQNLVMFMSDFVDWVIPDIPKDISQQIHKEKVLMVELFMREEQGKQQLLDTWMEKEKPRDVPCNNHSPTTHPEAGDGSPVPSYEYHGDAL
Experiment: Inside-out patch recording of 1PBC block, mutant V511A
Format: cell-based
Conditions: for remaining activity at 3 µM: 1PBC 3; for remaining activity at 3 µM / remaining activity at 10 µM / remaining activity at 30 µM / remaining activity at 100 µM: read-out: fraction of unblocked current; for remaining activity at 10 µM: 1PBC 10; for remaining activity at 30 µM: 1PBC 30; for remaining activity at 100 µM: 1PBC 100
Procedure: HEK293T cells (ATCC CRL-1573) were maintained in Dulbecco’s modified Eagle’s medium (DMEM; Sigma-Aldrich) supplemented with 10 U ml^−1 penicillin, 0.1 mg ml^−1 streptomycin (Sigma-Aldrich), 2 mM L-glutamine (Sigma-Aldrich), and 10% FBS (Sigma-Aldrich) in a humidified atmosphere containing 5% CO2 at 37 °C. HEK293S GnTI^− cells (ATCC CRL-3022) were maintained in HyClone HyCell TransFx-H medium (GE Healthcare) supplemented with 10 U ml^−1 penicillin, 0.1 mg ml^−1 streptomycin, 4 mM L-glutamine, 0.15% poloxamer 188 (Sigma-Aldrich), and 1% FBS in an atmosphere containing 5% CO2 at 185 rpm at 37 °C. The ac splice variant of mouse TMEM16A (UniProt ID: Q8BHY3), mouse TMEM16B (UniProt ID: Q8CFW1), or mouse TMEM16F (UniProt ID: Q6P9J9) bearing a 3C cleavage site, a Venus YFP, a Myc tag, and a Streptavidin-binding peptide (SBP) downstream of the open reading frame in a modified pcDNA3.1 vector (Invitrogen) were used as described previously[21],[31]. Mutations were introduced using a modified QuikChange method[58] and were verified by sequencing.
HEK293T cells were transfected with 3–4 μg DNA per 6 cm Petri dish using the calcium phosphate co-precipitation method and were used within 24–96 h after transfection. Recordings were performed on inside-out patches excised from HEK293T cells expressing the construct of interest. Patch pipettes were pulled from borosilicate glass capillaries (O.D. 1.5 mm, I.D. 0.86 mm, Sutter Instrument) and were fire-polished with a microforge (Narishige) before use. Pipette resistance was typically 3–8 MΩ when filled with the recording solutions detailed below. Seal resistance was typically 4 GΩ or higher. Voltage-clamp recordings were made using Axopatch 200B, Digidata 1550, and Clampex 10.7 (Molecular Devices). Analog signals were filtered with the in-built 4-pole Bessel filter at 10 kHz and were digitized at 20 kHz. Solution exchange was achieved using a gravity-fed system through a theta glass pipette mounted on an ultra-fast piezo-driven stepper (Siskiyou). […] All recordings were performed at 20 °C.
A symmetrical ionic condition was used throughout. Stock solution with Ca^2+-EGTA contained 150 mM NaCl, 5.99 mM Ca(OH)2, 5 mM EGTA, and 10 mM HEPES at pH 7.40. Stock solution with EGTA contained 150 mM NaCl, 5 mM EGTA, and 10 mM HEPES at pH 7.40. Free Ca^2+ concentrations were adjusted by mixing the stock solutions at the required ratios calculated using the WEBMAXC program (http://web.stanford.edu/~cpatton/webmaxcS.htm). Patch pipettes were filled with the stock solution with Ca^2+-EGTA, which has a free Ca^2+ concentration of 1 mM. 1PBC (ChemBridge) stock was reconstituted in anhydrous DMSO (Sigma-Aldrich) at 100 mM and stored at −20 °C. Working solutions with 1PBC were prepared by serial dilution. Unless otherwise stated, experiments were performed at a saturating Ca^2+ concentration as shown in Supplementary Table 1 and the primary data were corrected for current rundown as described previously[21],[25].
Concentration-response relations, obtained from the ratio of the I-V plots before and after the application of the blocker, were fitted to the Hill equation,1 I/Imax=1/1+IC50/[blocker]^h where I/Imax is the normalized current responses, IC50 defines the concentration at which inhibition is at its half-maximum, and h is the Hill coefficient.

N#Cc1c(C(F)(F)F)cc(O)n2c1nc1ccccc12 [1PBC]
IC50 (0 mV, 2 µM Ca2+): 20.8 µM | remaining activity at 3 µM (0 mV): 87.8% | remaining activity at 3 µM (20 mV): 84.4% | remaining activity at 3 µM (40 mV): 80.2% | remaining activity at 3 µM (60 mV): 77.1% | remaining activity at 3 µM (80 mV): 73.1% | remaining activity at 3 µM (100 mV): 70.9% | remaining activity at 3 µM (120 mV): 69.6% | remaining activity at 3 µM (140 mV): 70.4% | remaining activity at 3 µM (-20 mV): 91.2% | remaining activity at 3 µM (-40 mV): 93% | remaining activity at 3 µM (-60 mV): 94.7% | remaining activity at 3 µM (-80 mV): 95.6% | remaining activity at 3 µM (-100 mV): 95.2% | remaining activity at 3 µM (-120 mV): 95.6% | remaining activity at 3 µM (-140 mV): 94.5% | remaining activity at 10 µM (0 mV): 68% | remaining activity at 10 µM (20 mV): 62.6% | remaining activity at 10 µM (40 mV): 56.1% | remaining activity at 10 µM (60 mV): 50.6% | remaining activity at 10 µM (80 mV): 45.9% | remaining activity at 10 µM (100 mV): 43.5% | remaining activity at 10 µM (120 mV): 41.9% | remaining activity at 10 µM (140 mV): 42.2% | remaining activity at 10 µM (-20 mV): 73.3% | remaining activity at 10 µM (-40 mV): 78.6% | remaining activity at 10 µM (-60 mV): 82.2% | remaining activity at 10 µM (-80 mV): 84.9% | remaining activity at 10 µM (-100 mV): 86.6% | remaining activity at 10 µM (-120 mV): 87% | remaining activity at 10 µM (-140 mV): 87.7% | remaining activity at 30 µM (0 mV): 40.9% | remaining activity at 30 µM (20 mV): 35.2% | remaining activity at 30 µM (40 mV): 30.5% | remaining activity at 30 µM (60 mV): 26.5% | remaining activity at 30 µM (80 mV): 24% | remaining activity at 30 µM (100 mV): 22.5% | remaining activity at 30 µM (120 mV): 22.7% | remaining activity at 30 µM (140 mV): 23.4% | remaining activity at 30 µM (-20 mV): 46.5% | remaining activity at 30 µM (-40 mV): 52.4% | remaining activity at 30 µM (-60 mV): 58.4% | remaining activity at 30 µM (-80 mV): 63.9% | remaining activity at 30 µM (-100 mV): 68.3% | remaining activity at 30 µM (-120 mV): 71.3% | remaining activity at 30 µM (-140 mV): 72.9% | remaining activity at 100 µM (0 mV): 16.5% | remaining activity at 100 µM (20 mV): 13.8% | remaining activity at 100 µM (40 mV): 11.5% | remaining activity at 100 µM (60 mV): 10.1% | remaining activity at 100 µM (80 mV): 9.26% | remaining activity at 100 µM (100 mV): 9.4% | remaining activity at 100 µM (120 mV): 9.52% | remaining activity at 100 µM (140 mV): 9.88% | remaining activity at 100 µM (-20 mV): 19.3% | remaining activity at 100 µM (-40 mV): 23.1% | remaining activity at 100 µM (-60 mV): 28.5% | remaining activity at 100 µM (-80 mV): 33.3% | remaining activity at 100 µM (-100 mV): 37.9% | remaining activity at 100 µM (-120 mV): 41.7% | remaining activity at 100 µM (-140 mV): 44.8% | IC50 (20 mV, 2 µM Ca2+): 16.4 µM | IC50 (40 mV, 2 µM Ca2+): 12.8 µM | IC50 (60 mV, 2 µM Ca2+): 10.4 µM | log-fold IC50 (change of mutant vs WT) (80 mV): 0.5163 | IC50 (80 mV, 2 µM Ca2+): 8.67 µM | IC50 (100 mV, 2 µM Ca2+): 7.86 µM | IC50 (120 mV, 2 µM Ca2+): 7.49 µM | IC50 (140 mV, 2 µM Ca2+): 7.71 µM | IC50 (-20 mV, 2 µM Ca2+): 26.3 µM | IC50 (-40 mV, 2 µM Ca2+): 33.3 µM | IC50 (-60 mV, 2 µM Ca2+): 42.3 µM | IC50 (-80 mV, 2 µM Ca2+): 52.4 µM | IC50 (-100 mV, 2 µM Ca2+): 62.9 µM | IC50 (-120 mV, 2 µM Ca2+): 72.1 µM | IC50 (-140 mV, 2 µM Ca2+): 79.5 µM | IC50 (V511A, V 0 mV): 20.8 µM | IC50 (V511A, V 20 mV): 16.4 µM | IC50 (V511A, V 40 mV): 12.8 µM | IC50 (V511A, V 60 mV): 10.4 µM | IC50 (V511A, V 80 mV): 8.67 µM | IC50 (V511A, V 100 mV): 7.86 µM | IC50 (V511A, V 120 mV): 7.49 µM | IC50 (V511A, V 140 mV): 7.71 µM | IC50 (V511A, V -20 mV): 26.3 µM | IC50 (V511A, V -40 mV): 33.3 µM | IC50 (V511A, V -60 mV): 42.3 µM | IC50 (V511A, V -80 mV): 52.4 µM | IC50 (V511A, V -100 mV): 62.9 µM | IC50 (V511A, V -120 mV): 72.1 µM | IC50 (V511A, V -140 mV): 79.5 µM

Source: paper PMC9120017, “Inhibition mechanism of the chloride channel TMEM16A by the pore blocker 1PBC” (Nature Communications, 2022)
